Results on one compound are retold here after US20100048545A1, “Compounds and Compositions for Use in the Prevention and Treatment of Disorders of Fat Metabolism and Obesity” (INNODIA INC., priority 2006, published 2010).

Data set [1] deals with AMPK-ACC. Put plainly: Phosphorylation level of AMPK-ACC in the hypothalamus of HFHS fed rats (Western blot, anti-pACC). The settings on record: 100 mg/kg BID for 2 days, overnight fasted, dosed one hour before terminal procedure, vs control. Type of data set: in vivo. The text has this:
The AMPK pathway is known to regulate food intake in the hypothalamus. In low energy state as in a food deprivation situation, AMPK phosphorylates and in this way inactivates acetyl CoA carboxylase (ACC). Phosphorylation of ACC thus reduces its ability to catalyse the production of malonyl-CoA which is thought to be implicated in the […] of food consumption (.Hu, Z., Dai, Y., Prentki, M., Chohnan, S, and Lane, D. (2005) J. Biol. Chem. 280: 39681-39683).
To investigate whether 4-OH can alter activity of the AMPK/ACC in the hypothalamus, rats were treated BID with 100 mg/kg of 4-OH or water (control group) for 2 days. Each group was composed of four animals. All rats (controls and 4-OH treated) were fasted overnight before experimentation. On day 29, rats from each respective group were treated one hour before the terminal procedure with their appropriate solution (water for control and 4-OH for chronically 4-OH treated rats). After decapitation, the hypothalamus were isolated and snap frozen in liquid nitrogen. The hypothalamus was then powdered with liquid nitrogen and then solubilized in lysis buffer. Western blot was performed on the hypothalamus extract after resolution of proteins onto a 7.5% polyacrylamide SDS gel and transfer onto a nitrocellulose membrane. […]

Data set [2] concerns white adipocytes. In words: Release and uptake of free fatty acids by ex vivo cultured white adipocytes of treated rats. Type of data set: cell-based, Wistar rats. The text has this: A total of 60 animals were used in the study. The animals were distributed into 6 groups; 1 group was fed standard chow, 1 group was fed a high fat, high sucrose (HFHS) diet with 28 days treatment, 1 untreated control group was fed a HFHS diet, and 1 untreated group was fed a HFHS diet, but with caloric intake restricted to match the caloric intake of the 4-OH treated animals (pair-fed animals). A fifth group was fed a high fat, high sucrose (HFHS) diet with 28 days treatment and received an acute oral administration of 4-OH just prior to experimentation on Day 29 of the study, and a sixth group was fed a HFHS diet, but with caloric intake restricted to match the caloric intake of the 4-OH treated animals receiving an acute oral administration of 4-OH on Day 29 of the study (pair-fed animals). Each group was composed of 10 animals. […] Body weights were measured once weekly from week 1 to week 4 of the study. The white adipose tissues of non-treated and treated rats were collected and cultured ex vivo. After 2 hours of culture, the relative release and uptake of free fatty acids by the adipocytes was measured in absence or presence of insulin, and standardized on the basis of DNA content of the cultures.

Data set [3] has as its system CPT1. Put plainly: RT-PCR gene expression in adipocytes of treated rats: CPT1. The class given is in vivo. The settings on record: data not shown. On the procedure: As the ex vivo studies on adipocytes indicated the lipolytic effect of drug was due to chronic exposure (see previous example), a role in gene regulation was assessed. RT-PCR was used to assess the expression of genes in the adipocytes from treated and control animals.

The test system of data set [4] is Wistar rat model of diet-induced obesity. In words: Body fat (DEXA) and white adipose tissue weight in Wistar rat model of diet-induced obesity. The settings on record: 28 days. Type of data set: in vivo, Wistar rats. An excerpt: A total of 60 animals were used in the study. The animals were distributed into 6 groups; 1 group was fed standard chow, 1 group was fed a high fat, high sucrose (HFHS) diet with 28 days treatment, 1 untreated control group was fed a HFHS diet, and 1 untreated group was fed a HFHS diet, but with caloric intake restricted to match the caloric intake of the 4-OH treated animals (pair-fed animals). A fifth group was fed a high fat, high sucrose (HFHS) diet with 28 days treatment and received an acute oral administration of 4-OH prior to experimentation on Day 29 of the study, and a sixth group was fed a HFHS diet, but with caloric intake restricted to match the caloric intake of the 4-OH treated animals receiving an acute oral administration of 4-OH on Day 29 of the study (pair-fed animals). Each group was composed of 10 animals. […] Immediately prior to commencement of treatment the animals were evaluated by DEXA scanning (Dual Energy X-ray Absortiometry) to determine the baseline percentage of body weight related to fat. For the four weeks of treatment, the test article (4-OH) was dissolved in reverse osmosis water. 4-OH was aliquoted and kept at 4° C. […] Untreated animals received water twice daily.

Data set [5] relates to normal Wistar rats fed a high fat, high sucrose diet (HFHS). In words: Prevention of weight gain in rat model of diet-induced obesity (HFHS diet), 28 days. The settings on record: 100 mg/kg twice daily oral; for weight gain: HFHS diet. The text has this:
The aim of this study was to evaluate the effect of chronic administration of 4-hydroxyisoleucine (4-OH, Compound 14a) on food consumption, tissue weight, and body weight gain of normal Wistar rats fed a high fat, high sucrose diet (HFHS).
The animals were acclimated for 1 week and fed standard chow prior to the commencement of treatment, then for the 28 days of the treatment the animals were fed a high fat, high sucrose diet (HFHS). A total of 30 animals were used in the study. The animals were distributed into 3 groups each composed of 10 animals: 1 group fed HFHS with treatment, 1 untreated control group fed standard chow, and 1 untreated group fed HFHS. Animals were housed separately and food consumption was monitored daily.
For the four weeks of treatment, the test compounds were dissolved in reverse osmosis water. 4-hydroxyisoleucine (4-OH) was aliquoted and kept at 4° C. Treated animals received twice daily oral administration of 4-OH at 100 mg/kg per dose. Control animals received water twice daily.

Data set [6] has as its system obese mice. In words: Compound 22 and 4-hydroxyisoleucine on weight gain of obese mice, 21 days. Type of data set: in vivo, C57BL/6 mice. The settings on record: p<0.01. Here is the method:
The objective of the following study was to evaluate the effect of the lactone form of 4-hydroxyisoleucine (compound 22) on the weight gain of obese mice. 40 C57BL/6 mice were fed a high fat diet (60% of calories from fat) for 6 weeks in order to induce obesity. Animals were than randomized to 5 study groups of 8 mice each according to their body weight values. Thereafter, the animals were treated orally twice daily with either the water vehicle, 50 mg/kg of compound 22, 100 mg/kg of compound 22, 50 mg/kg of 4-hydroxyisoleucine or 100 mg/kg of 4-hydroxyisoleucine. The treatment lasted 21 days and body weight of mice were determined daily from day 1 to day 21 of the study.

For `C[C@@H]([C@H](C)O)[C@H](N)C(=O)O` [Compound 14a, (2S,3R,4S)-4-Hydroxyisoleucine], the “level of phosphorylated ACC in hypothalamus” value in data set [1] is given as “even more reduced”. In addition, the “fatty acid uptake in presence of insulin” value in data set [2] (2 hours of culture) is listed as “not significantly different across all groups”. Further, the “basal fatty acid release” value in data set [2] (2 hours of culture, absence of insulin, vs pair-fed groups, p<0.01) was “significant increased basal fatty acid release”. Besides, the “insulin stimulated release of fatty acid” value in data set [2] (vs pair fed groups and HFHS control, p<0.01) is on record as “significantly increased”. Besides, the “expression of CPT1” value in data set [3] is listed as “Upregulation”. The “percentage change in fat composition relative to baseline (DEXA)” value in data set [4] (100 mg/kg twice daily oral, HFHS ad libitum, p<0.01) is reported as “significant reduction in percentage fat”. In data set [4] (100 mg/kg twice daily), the “weight of white adipose tissues compared with normal chow animals” value is reported as “the same as untreated animals receiving normal chow”. For the same compound, in data set [4] (100 mg/kg twice daily, vs pair fed untreated and HFHS controls), the “weight of white adipose tissue (epididymal, inguinal and retroperitoneal)” value is reported as “significant reduction in the weight of these tissues”. Besides, in data set [5], the “epididymal and peri-renal adipose tissue” value is “reduction of epididymal and peri-renal adipose tissue”; the food consumption entry is reported as “reduction in food consumption”; the “muscle, brown fat, and organ weight” value is given as “not affected”; the tolerability of treatment entry was “well tolerated”. Moreover, the weight gain entry in data set [5] was “prevention of weight gain”. Also, in data set [5] (listed as 4-OH), the weight gain entry is recorded as “Moderation of weight gain was observed”. Moreover, the body weight entry in data set [6] (100 mg/kg orally twice daily, 21 days, vs water control) was “significant reduction of body weight compared to the water control group”. Further, the “white fat mass (epididymal fat)” value in data set [6] (100 mg/kg, end of treatment) was “loss of the white fat mass (epididymal fat)”.
